Results on three molecules are retold here after US11091476B2, “Protein kinase inhibitors, preparation method and medical use thereof” (Gan & Lee Pharmaceuticals, priority 2015, dated 2021).

In one assay the target is CDK1/CyclinA2 (Homo sapiens (Human), UniProt P06493). The assay can be described thus: CDK kinase inhibitory activity, ADP-Glo Kinase Assay, CDK1/CyclinA2. Format: biochemical.
A further assay addresses CDK6/CyclinD3 (Homo sapiens (Human), UniProt Q00534). The assay can be described thus: CDK kinase inhibitory activity, ADP-Glo Kinase Assay, CDK6/CyclinD3. In kind it is biochemical. A general note: In ADP-Glo the light output rises with the ADP produced.
Assay [1] deals with Human breast cancer cells MDA-MB-231. The assay can be described thus: Inhibition of proliferation of human breast cancer cell MDA-MB-231 (DAPI, In Cell Analyzer). Format: cell-based. The following applies: for IC50: Homo sapiens, MDA-MB-231, 72 hours incubation, read-out: IC50, proliferation of human breast cancer cell MDB-MA-231; for Inhibitory activity on proliferation of the MDA-MB-231 cell line, in words: experimental conclusion. As to the method:
200 μl of medium containing 0.2% DMSO (dimethylsulfoxide) was added into B2 to B10 of a 96-well plate; 300 μl of the above solution was added into B1; and • c. 100 μl of solution was taken from well B1, added into B2, and mixed well; then 100 μl of the resulting solution was taken and added into B3, and dilution was carried out in sequence to B9, so as to obtain standard solutions diluted by 3-fold sequentially. • (2) Preparation of Test Compound Solutions • a. […] 200 μl of medium containing 0.2% DMSO (dimethylsulfoxide) was added into H2 to H10 of the 96-well plate; and 300 μl of the above solution was added into H1; and • c. 100 μl of solution was taken from well H1, added into H2, and mixed well; then 100 μl of the resulting solution was taken and added into H3, and dilution was carried out in sequence to […], so as to obtain test compound solutions diluted by 3-fold sequentially.
2.3 Experimental Process: • 2.3.1: MDA-MB-231 cells were inoculated into a 96-well cell plate with black transparent bottom at 4000 cells/100 μl/well, and cultured overnight at 37° C.; • 2.3.2: The above samples were added at 100 μl/well to a culture plate inoculated with cells, gently patted to mix well, and incubated at 37° C. for 72 hours; • 2.3.3: Fixation: the cell plate was taken out, the medium was removed, and 50 μl of 4% paraformaldehyde was added per well to fix for 10 minutes; • 2.3.4: 50 μl of 0.1M glycine was added to neutralize for 10 minutes; • 2.3.5: 1×PBS (phosphate buffer pH 7.2) was used to wash twice; • 2.3.6: Permeabilization: 50 μl of 0.2% TRITON-X®100 (Triton) was added per well, and permeabilization was carried out at room temperature for 10 minutes; • 2.3.7: 1×PBS (Phosphate buffer pH 7.2) was used to wash twice; • 2.3.8: 5 mg/mL DAPI stock solution was diluted at a ratio of 1:5000 (final concentration of 1 μg/ml), and staining was performed at room temperature for 20 minutes; • 2.3.9: 1×PBS (Phosphate buffer pH 7.2) was used to wash three times; and • 2.3.10: Scanning and analysis were performed by an IN cell analyzer 2200.
The inhibition rate of each compound at each concentration point was calculated by the formula as follows and curve fitting was performed by GraphPad Prism 5 software to obtain the IC50 value.

Consider `CCN1CCC(c2ccc(Nc3ncc(F)c(-c4cc(F)c5c(c4)C4(CCCC4)C(C)=N5)n3)nc2)CC1` [Example 12, N-(5-(1-ethylpiperidin-4-yl)pyridin-2-yl)-5-fluoro-4-(7′-fluoro-2′-methylspiro [cyclopentane-1,3′-indol]-5′-yl)pyrimidine-2-amino], for which the values for the IC50 (against CDK1/CyclinA2; against CDK6/CyclinD3; in assay [1]) were 1070 nM, 3.78 nM and 183 nM, respectively. In addition, the CDK1/CDK6 at CDK6/CyclinD3 (ratio of IC50s, selectivity for CDK6 over CDK1) is 283.33. In addition, the CDK9/CDK6 on CDK6/CyclinD3 (ratio of IC50s, selectivity for CDK6 over CDK9) was determined as 18.75. Also, the Pim-1/CDK6 at CDK6/CyclinD3 (ratio of IC50s, selectivity for CDK6 over Pim-1) is on record as 3.99. Also, the “Inhibitory activity on proliferation of the MDA-MB-231 cell line, in words” value in assay [1] was “significant inhibitory activity”.

In the case of `CC1=Nc2c(F)cc(-c3nc(Nc4ccc(C5CCN(C)CC5)cn4)ncc3F)cc2C12CCCC2` [Example 17, 5-Fluoro-4-(7′-fluoro-2′-methylspiro[cyclopentane-1,3′-indol]-5′-yl)-N-(5-(1-methylpiperidin-4-yl)pyridin-2-yl)pyrimidine-2-amino], the values for the IC50 (at CDK1/CyclinA2; against CDK6/CyclinD3; in assay [1]) were 2710 nM, 0.73 nM and 110 nM, respectively. For the same molecule, at CDK6/CyclinD3 (test conclusion), the “Inhibitory effect on CDK6, in words” value was “higher enzymatic activity for CDK6”. The “Inhibitory activity on proliferation of the MDA-MB-231 cell line, in words” value in assay [1] is “significant inhibitory activity”.

`CCN1CCN(Cc2ccc(Nc3ncc(F)c(-c4cc(F)c5nc(C)n(C(C)C)c5c4)n3)nc2)CC1` [LY2835219, reference compound]: the IC50 in assay [1] stood at 229 nM.
